Measured values from patent US6338963B1, “Use of carbon monoxide dependent guanylyl cyclase modifiers to stimulate neuritogenesis” (NeoTherapeutics, Inc., priority 1994, dated 2002).
Where two headings read alike, the source gives them in different places.

Experiments:
[1] = target: acetylcholine receptors; type: binding, mice; details: for number of receptors (B max): mice treated 30 mg/kg 2 hours prior to sacrifice
[2] = tested on: adenosine receptor; assay: Receptor ligand binding in vitro, adenosine
Procedure: AIT-082 was evaluated for its ability to inhibit ligand binding to 38 isolated receptors.

[3] = tested on: NT-3 mRNA; assay: Northern blot of neurotrophin mRNA from astrocytes: NT-3; type: cell-based, NIH Swiss mice; parameters: key: The conditions which produced a detectable amount of each of the neurotrophin mRNAs are indicated by a “+”; a “++” indicating that at least twice the detectable amount was present; Those blots which were negative are indicated by a “−”; details: 24 hours
Procedure: Induction of neurotrophin mRNA was determined by northern blot analysis of astrocytes cultured with AIT-082, NGF, or both. The cells were harvested and RNA extracted at 24 hours after treatment.
More particularly, astrocytes from the cerebral cortex of NIH Swiss mice (Harlan) were isolated. Briefly, newborn pups (0-24 hours) were decapitated. Their brains were removed under aseptic conditions and were placed in modified Dulbecco's medium (DMEM) containing 20% heat-inactivated horse serum (Hyclone) (“complete medium”). The neopallium was then dissected from each cerebral hemisphere and minced into 1 mm cubes.
The astrocytes were then isolated by mechanical dissociation. The cubes were vortexed at maximum speed for one minute. The cell suspension was then passed first through 75 mm Nitex then through 10 mm Nitex. The resulting cell suspension was diluted in complete medium to a final concentration of one brain per 10 ml of complete medium. Ten milliliters of the diluted cell suspension was added to each 100 mm Falcon tissue culture plate (Fisher). After 3 days the medium was replaced with 10 ml fresh complete medium and subsequently was replaced twice weekly with DMEM containing 10% heat inactivated horse serum (“growth medium”). After two weeks in culture the astrocytes formed a confluent monolayer.
For RNA extraction, astrocytes were trypsinized. The astrocytes were then replated onto 100 mm PORN coated plates at a cell density of 10^6 cells per plate (10 ml growth medium). […]
The blots were probed with ^32P-labeled cDNA (NGF, NT-3 and BDNF probes) or oligonucleotide probe (FGF-2) by hybridization in Piperazine-N,N′-bis-(2-ethanesulfonic acid) (PIPES) buffer (50 mM PIPES, pH 6.8; 50 mM NaH2PO4; 0.1 M NaCl; 5% SDS and 1 mM EDTA) overnight at 50° C. […] Various concentrations ([…] of total RNA), as determined by spectrophotometry, of each sample were blotted and probed so that quantification could be done after insuring a linear film response. Quantification was performed using MCID Image Analysis (St. Catherine's, Ontario, Canada). […]

[4] = tested on: C57BL/6 mice; assay: Win-shift duration of memory trace, C57BL/6 mice; type: in vivo; details: for Correct (Mean score ± S.E.) / No. above chance/Total #: AIT-082 30 mg/kg
Procedure: To determine the duration of the memory trace, subjects were administered drug or saline and 30 minutes (PHY) or 1 hour (AIT-082 or THA) later they were given a single reference run with the milk reward in both goal boxes. After the indicated inter-trial delay, subjects were returned to the start box and given the first test trial with the milk reward only in the goal box opposite to the one entered on the previous correct trial. The subjects were given 10 trials with the reward alternating only after correct responses.
Previous work has established that normal adult Swiss Webster mice have a memory trace duration of 60 seconds in the win-shift paradigm which may be increased by the administration of AIT-082.

[5] = tested on: CNTF mRNA; assay: RT-PCR of growth factor mRNA after T8 spinal cord hemisection: CNTF; type: in vivo, Wistar rats
[6] = tested on: TGFβ1; assay: Summary of effects on growth factor mRNA and protein (Table R): TGFβ1; parameters: key: ± = mRNA; + = protein; nt = not tested; details: Cultured Cells
Text: The constellation of effects of AIT-082 on production of mRNA encoding growth factors and on production of growth factor proteins is shown in Table R. The results summarized in […] show both transcriptional and translational effects on growth factors that are in the categories of neurotrophins, pleiotrophins, members of the S100 family of EF hand calcium binding proteins, and members of the TGFβ superfamily. As indicated, effects have been shown at both the mRNA (transcriptional) and protein (translational) levels.

[7] = tested on: mice; details: oral or intraperitoneal route, preliminary

Structure (SMILES): O=C(CCn1cnc2c(=O)[nH]cnc21)Nc1ccc(C(=O)O)cc1 [AIT-082, N-4-carboxyphenyl-3-(6-oxohydropurin-9-yl)propanamide]
- affinity (Kd) for QNB [1]: no effect
- number of receptors (B max) ([1]; cortex): decrease
- number of receptors (B max) ([1]; striatum): increase
- binding to the adenosine receptor [2]: does not bind
- NT-3 mRNA ([3]; AIT-082 100 mM): ++
- NT-3 mRNA ([3]; AIT-082 + NGF (40 ng/ml)): +
- duration of the memory trace ([4]; AIT-082 30 mg/kg i.p., untreated 120 seconds): over 210 seconds
- Correct (Mean score ± S.E.) ([4]; inter-trial interval 180 sec): 70 ± 15
- No. above chance/Total # ([4]; inter-trial interval 180 sec): 4/6
- Correct (Mean score ± S.E.) ([4]; inter-trial interval 210 sec): 78 ± 15
- No. above chance/Total # ([4]; inter-trial interval 210 sec): 4/6
- Correct (Mean score ± S.E.) ([4]; inter-trial interval 240 sec): 50 ± 6
- No. above chance/Total # ([4]; inter-trial interval 240 sec): 0/6
- Correct (Mean score ± S.E.) ([4]; inter-trial interval 270 sec): 50 ± 6
- No. above chance/Total # ([4]; inter-trial interval 270 sec): 0/6
- CNTF mRNA level ([5]; at the level of the lesion): increased mean CNTF mRNA levels over control animals, although not statistically so
- CNTF mRNA level ([5]; caudal to lesion, 7 days): no significant effects
- CNTF mRNA level ([5]; rostral to lesion, 3 days, sham-operated over lesion animals): significantly increased
- CNTF mRNA level ([5]; rostral to lesion, 7 days, control animals, over water alone (p=0.017)): robust increase
- CNTF mRNA level ([5]; rostral to lesion, 7 days, relative to lesion alone (p=0.056)): increased CNTF mRNA levels
- TGFβ1, effect on mRNA/protein production [6]: +
- LD50 [7]: > 3000 mg/kg
